Results as given in patent publication US20080292699A1, “SOLID PHARMACEUTICAL DOSAGE UNIT FOR A[…] OF RHINORRHEA” (SOVEREIGN PHARMACEUTICALS, LTD., priority 2007, published 2008).
Where a name gives a salt, the structure may show the parent alone.

Assay: Dissolution testing of the bi-layered tablet (USP I, baskets, 0.01 N HCl)
Assay type: physicochemical
Conditions: 500 mL 0.01 N HCl, 37° C., 100 rpm, average of six tablets
[1] = Time 2 hr, sustained release layer
[2] = Time 4 hr, sustained release layer
[3] = Time 8 hr, sustained release layer

Protocol: Place 500 mL (+/−5 mL) of 0.01 N HCl in each vessel of the dissolution apparatus (USP I, baskets). Allow media to equilibrate to 37° C.+/−0.5° C. […] Select 6 tablets at random and record weight of each tablet. […] Put one tablet into each basket. Turn dissolution apparatus on to a rate of 100 rpm. […] Withdraw samples through a 45 μm porous polyethylene filter disc (Whatman GE/X or Millipore Millex-GN) at 45 minutes, 2, 4 and 8 hours. […] Inject filtered samples into a gas chromatograph, injecting one standard (as used for calibration) after every six samples. Gas Chromatography: Instrument: Waters Alliance 2695 Separation Module Column: Waters μBondapak C18 Column, 10 μm, 3.9×300 mm; PN WAT027324 Column Temperature: 52° C. Flow Rate: 1.8 mL per minute Injection Volume: 200 μL Detector: UV at 257 nm Mobile Phase: A: Methanol • B: Pic-B8 (for every liter of Pic-B8 aqueous solution, dissolve 2.164 g of 1-octanesulfonic acid sodium salt in water and add 20 mL of glacial acetic acid) [table]

Average Amount Released [%] [1]	Average Amount Released [%] [2]	Average Amount Released [%] [3]	Compound	Average Amount Released [%] (Time 45 min, immediate release layer)
33.3%	57.1%	87.0%	CN(C)CCC(c1ccc(Cl)cc1)c1ccccn1 (stereo not shown) [CPM, Chlorpheniramine Maleate]	–
–	–	–	Methscopolamine Nitrate [MSPN]	100.2%
43.6%	65.8%	89.0%	CNC[C@H](O)c1cccc(O)c1 [PEH, Phenylephrine HCl]	–
